Measured values published in paper PMC12472621, “Excavating Precursors from Herb Pairs Polygala tenuifolia and Acori tatarinowii: Synthesis and Anticonvulsant Activity Evaluation of 3,4,5-Trimethoxycinnamic Acid (TMCA) Piperazine Amide Derivatives” (Pharmaceuticals, 2025).
Read-outs that look alike come from different tables or passages of the source.

What was measured:
[1] = system: maximal electroshock (MES) induced seizures; assay: Maximal electroshock (MES) test; assay type: in vivo, mice; settings: mice; for responders at 100 mg/kg / ED50: Mus musculus, ip; for responders at 100 mg/kg / MES model, protected mice/total mice, 0.5 h / MES model, protected mice/total mice, 1 h / MES model, protected mice/total mice, 2 h / MES model, protected mice/total mice, 3 h: 100 mg/kg i.p.; for ED50: 95% confidence intervals in parentheses
From the text: (§1) Male Kunming mice (23–28 g) were maintained under controlled conditions with ad libitum access to standard pellet diet and water. Test compounds were formulated immediately prior to administration in normal saline containing 0.5% Tween-80. Our experiment was authorized by the Institutional Animal Care and Use Committee of Shaanxi University of Chinese Medicine (animal ethics certificate number: SUCMDL20210309027).
The MES test carried out following the method of Swinyard. A 60 Hz current (50 mA; 0.25 s duration) was delivered via corneal electrodes using a YSD-4G electro convulsion meter (Zhenghua Instruments, Huaibei, China, SN: ZH0056232). […] Test compounds were suspended in an identical vehicle. Protection was defined as abolition of tonic hindlimb extension.

scPTZ-induced seizures = assay: Pentylenetetrazole (PTZ)-induced seizure test (scPTZ); assay type: in vivo; settings: 100 mg/kg i.p., PTZ 85 mg/kg s.c., mice
Protocol: as §1
Seizures were induced by subcutaneous (s.c.) administration of PTZ (85 mg/kg in 1% v/v Tween-80/0.9% NaCl), 30 min after compound treatment. This dose produces clonic seizures (≥5 s duration) in 97% of naive mice. Latency to seizure onset was recorded during continuous observation.

[2] = Acute neurotoxicity screening (rotarod test); assay type: in vivo, mice; settings: male, Kunming, mouse, in vivo, ip, 30 min post-administration, 95% confidence intervals in parentheses
Protocol: as §1
Neurotoxicity was assessed via a rotarod test. Mice were trained to maintain balance on a rotating rod (diameter: 4 cm; 24 rpm). Trained animals received i.p. injections of test compounds or reference drugs. At 30 min post-administration, neurologic impairment was defined as failure to remain on the rod for 3 min (≥3 falls within the testing period). Data were used to calculate TD50 values.

LDH enzyme = assay: In vitro LDH assay; assay type: biochemical
Protocol: Employing the commercial LDH enzyme (Solarbio Life Science, Beijing, China, CAS:9001-60-9, Lot. Document No. 14240222001) includes a colorimetric assay kit designed to assess the synthesized substances’ capacity to suppress the LDH enzyme, using established techniques with slight alterations. In summary, a 96-well microplate was filled with 30 μL of LDH enzyme (300 U/mL) and 70 μL of the inhibitor mixture (0.1 mM in final concentration). Following a 10 min pre-incubation process at ambient temperature, […] of NADH (0.2 mM) was introduced. Subsequently, each well received 40 μL of phosphate buffer (20 mM, pH 6.8), reaching a total volume of 250 μL, followed by a 10 min incubation of the assay plate at 28 °C. Subsequently, […] absorbance was gauged at 340 nm utilizing a SpectraMax 190 Absorbance Microplate Reader (Molecular Devices, San Jose, CA, USA). […] In the initial screening, the level of suppression by the test substances was denoted as a percentage (%). The calculation for the LDH inhibition ratio was as follows:Inhibition (%) = [(Asample − Ablank)/Acontrol] × 100%
Asample denotes the OD340 absorbance of test compound and Ablank is the OD340 absorbance for the blank. Acontrol represents the OD340 absorbance of control.

[3] = 0.5 h, read-out: MES model, protected mice/total mice, 0.5 h (converted)
[4] = 1 h, read-out: MES model, protected mice/total mice, 1 h (converted)
[5] = 2 h, read-out: MES model, protected mice/total mice, 2 h (converted)
[6] = 3 h, read-out: MES model, protected mice/total mice, 3 h (converted)

COc1cc(/C=C/C(=O)N2CCN(CCCC(=O)N3CCN(C(c4ccc(F)cc4)c4ccc(F)cc4)CC3)CC2)cc(OC)c1OC [A9, (E)-1-(4-(bis(4-fluorophenyl)methyl)piperazin-1-yl)-4-(4-(3-(3,4,5-trimethoxyphenyl)acryloyl)piperazin-1-yl)butan-1-one]
responders at 100 mg/kg [1, 3]: 100% | responders at 100 mg/kg [1, 4]: 75% | responders at 100 mg/kg [1, 5]: 50% | responders at 100 mg/kg [1, 6]: 0% | ED50 [1]: 37.5 mg/kg | SCPTZ Latent Time (100 mg/kg, s) (scPTZ-induced seizures): 204.5 ± 12.6 s | SCPTZ Protective Ratio (100 mg/kg) (scPTZ-induced seizures): 1/4 | TD50 at 30 min [2]: 305 mg/kg

COc1cc(/C=C/C(=O)N2CCN(CCCC(=O)N3CCN(c4cccc(Cl)c4Cl)CC3)CC2)cc(OC)c1OC [A12, (E)-1-(4-(2,3-dichlorophenyl)piperazin-1-yl)-4-(4-(3-(3,4,5-trimethoxyphenyl)acryloyl)piperazin-1-yl)butan-1-one]
LDH Inhibition Ratio (0.1 mM) (LDH enzyme): 41.9 ± 9.2% | responders at 100 mg/kg [1, 3]: 100% | responders at 100 mg/kg [1, 4]: 75% | responders at 100 mg/kg [1, 5]: 75% | responders at 100 mg/kg [1, 6]: 25% | ED50 [1]: 54.7 mg/kg | SCPTZ Latent Time (100 mg/kg, s) (scPTZ-induced seizures): 161.5 ± 24.0 s | SCPTZ Protective Ratio (100 mg/kg) (scPTZ-induced seizures): 0/4 | TD50 at 30 min [2]: 284 mg/kg

COc1cc(/C=C/C(=O)N2CCN(CCCC(=O)N3CCN(c4ccc(C(F)(F)F)cc4)CC3)CC2)cc(OC)c1OC [A14, (E)-1-(4-(4-(trifluoromethyl)phenyl)piperazin-1-yl)-4-(4-(3-(3,4,5-trimethoxyphenyl)acryloyl)piperazin-1-yl)butan-1-one]
LDH Inhibition Ratio (0.1 mM) (LDH enzyme): 42.6 ± 7.3% | responders at 100 mg/kg [1, 3]: 100% | responders at 100 mg/kg [1, 4]: 100% | responders at 100 mg/kg [1, 5]: 75% | responders at 100 mg/kg [1, 6]: 25% | ED50 [1]: 52.4 mg/kg | SCPTZ Latent Time (100 mg/kg, s) (scPTZ-induced seizures): 233.5 ± 18.3 s | SCPTZ Protective Ratio (100 mg/kg) (scPTZ-induced seizures): 2/4 | TD50 at 30 min [2]: 358 mg/kg

COc1cc(/C=C/C(=O)N2CCN(C(=O)CCC(=O)N3CCN(c4nsc5ccccc45)CC3)CC2)cc(OC)c1OC [B10, (E)-1-(4-(benzo[d]isothiazol-3-yl)piperazin-1-yl)-4-(4-(3-(3,4,5-trimethoxyphenyl)acryloyl)piperazin-1-yl)butane-1,4-dione]
responders at 100 mg/kg [1, 3]: 75% | responders at 100 mg/kg [1, 4]: 75% | responders at 100 mg/kg [1, 5]: 25% | responders at 100 mg/kg [1, 6]: 0%

COc1cc(/C=C/C(=O)N2CCN(C(=O)CCC(=O)N3CCN(c4ccccc4)CC3)CC2)cc(OC)c1OC [B11, (E)-1-(4-phenylpiperazin-1-yl)-4-(4-(3-(3,4,5-trimethoxyphenyl)acryloyl)piperazin-1-yl)butane-1,4-dione]
responders at 100 mg/kg [1, 3]: 50% | responders at 100 mg/kg [1, 4]: 50% | responders at 100 mg/kg [1, 5]: 25% | responders at 100 mg/kg [1, 6]: 0%

COc1cc(/C=C/C(=O)N2CCN(C(=O)CCC(=O)N3CCN(c4cccc(Cl)c4Cl)CC3)CC2)cc(OC)c1OC [B12, (E)-1-(4-(2,3-dichlorophenyl)piperazin-1-yl)-4-(4-(3-(3,4,5-trimethoxyphenyl)acryloyl)piperazin-1-yl)butane-1,4-dione]
LDH Inhibition Ratio (0.1 mM) (LDH enzyme): 44.3 ± 6.5% | responders at 100 mg/kg [1, 3]: 100% | responders at 100 mg/kg [1, 4]: 75% | responders at 100 mg/kg [1, 5]: 25% | responders at 100 mg/kg [1, 6]: 25% | ED50 [1]: 60.3 mg/kg | SCPTZ Latent Time (100 mg/kg, s) (scPTZ-induced seizures): 230.3 ± 17.4 s | SCPTZ Protective Ratio (100 mg/kg) (scPTZ-induced seizures): 1/4 | TD50 at 30 min [2]: 417 mg/kg

COc1cc(/C=C/C(=O)N2CCN(C(=O)CCC(=O)N3CCN(c4cccc(Cl)c4)CC3)CC2)cc(OC)c1OC [B13, (E)-1-(4-(3-chlorophenyl)piperazin-1-yl)-4-(4-(3-(3,4,5-trimethoxyphenyl)acryloyl)piperazin-1-yl)butane-1,4-dione]
responders at 100 mg/kg [1, 3]: 50% | responders at 100 mg/kg [1, 4]: 25% | responders at 100 mg/kg [1, 5]: 0% | responders at 100 mg/kg [1, 6]: 0%

COc1cc(/C=C/C(=O)N2CCN(C(=O)CCC(=O)N3CCN(c4ccc(C(F)(F)F)cc4)CC3)CC2)cc(OC)c1OC [B14, (E)-1-(4-(4-(trifluoromethyl)phenyl)piperazin-1-yl)-4-(4-(3-(3,4,5-trimethoxyphenyl)acryloyl)piperazin-1-yl)butane-1,4-dione]
responders at 100 mg/kg [1, 3]: 75% | responders at 100 mg/kg [1, 4]: 75% | responders at 100 mg/kg [1, 5]: 50% | responders at 100 mg/kg [1, 6]: 0%

COc1ccccc1N1CCN(C(=O)CCC(=O)N2CCN(C(=O)/C=C/c3cc(OC)c(OC)c(OC)c3)CC2)CC1 [B15, (E)-1-(4-(2-methoxyphenyl)piperazin-1-yl)-4-(4-(3-(3,4,5-trimethoxyphenyl)acryloyl)piperazin-1-yl)butane-1,4-dione]
responders at 100 mg/kg [1, 3]: 75% | responders at 100 mg/kg [1, 4]: 75% | responders at 100 mg/kg [1, 5]: 25% | responders at 100 mg/kg [1, 6]: 0%

COc1cc(/C=C/C(=O)N2CCN(C(=O)CCC(=O)N3CCN(c4ncccn4)CC3)CC2)cc(OC)c1OC [B16, (E)-1-(4-(pyrimidin-2-yl)piperazin-1-yl)-4-(4-(3-(3,4,5-trimethoxyphenyl)acryloyl)piperazin-1-yl)butane-1,4-dione]
responders at 100 mg/kg [1, 3]: 75% | responders at 100 mg/kg [1, 4]: 50% | responders at 100 mg/kg [1, 5]: 50% | responders at 100 mg/kg [1, 6]: 0%

COc1cc(/C=C/C(=O)N2CCN(C(=O)CCC(=O)N3CCC(c4noc5cc(F)ccc45)CC3)CC2)cc(OC)c1OC [B17, (E)-1-(4-(6-fluorobenzo[d]isoxazol-3-yl)piperidin-1-yl)-4-(4-(3-(3,4,5-trimethoxyphenyl)acryloyl)piperazin-1-yl)butane-1,4-dione]
responders at 100 mg/kg [1, 3]: 50% | responders at 100 mg/kg [1, 4]: 50% | responders at 100 mg/kg [1, 5]: 25% | responders at 100 mg/kg [1, 6]: 0%

(E)-3-(2,4,5-trimethoxyphenyl)allyl 4-oxo-4-(4-((E)-3-(3,4,5-trimethoxyphenyl)acryloyl)piperazin-1-yl)butanoate [B5]
MES model, protected mice/total mice, 0.5 h ([1]; 0.5 h): 3/4 | MES model, protected mice/total mice, 1 h ([1]; 1 h): 3/4 | MES model, protected mice/total mice, 2 h ([1]; 2 h): 2/4 | MES model, protected mice/total mice, 3 h ([1]; 3 h): 0/4

(E)-3-(2,4,5-trimethoxyphenyl)allyl 4-oxo-4-(4-((E)-3-(3,4,5-trimethoxyphenyl)acryloyl)piperazin-1-yl)butanoate [B6]
MES model, protected mice/total mice, 0.5 h ([1]; 0.5 h): 2/4 | MES model, protected mice/total mice, 1 h ([1]; 1 h): 1/4 | MES model, protected mice/total mice, 2 h ([1]; 2 h): 1/4 | MES model, protected mice/total mice, 3 h ([1]; 3 h): 0/4
